Test results as given in ChEMBL document CHEMBL5252568, “Rational design of HJH antimicrobial peptides to improve antimicrobial activity” (Bioorg Med Chem Lett, 2023).

How the values were obtained:
[1] = tested on: Escherichia coli; test: Antimicrobial activity against Escherichia coli ATCC 25922 assessed as reduction in microbial growth; format: functional
[2] = tested on: Staphylococcus aureus; test: Antimicrobial activity against Staphylococcus aureus ATCC 29213 assessed as reduction in microbial growth; format: functional
[3] = tested on: Candida albicans; test: Antimicrobial activity against Candida albicans ATCC 90029 assessed as reduction in microbial growth; format: functional
[4] = Hemolytic activity against human RBC assessed as concentration required to cause 10% hemolysis up to 256 uM relative to control; format: toxicity, cell-based; conditions: erythrocyte
[5] = tested on: HEK293; test: Cytotoxicity against human HEK293 cells assessed as reduction in cell viability up to 256 uM; format: toxicity, cell-based; conditions: hek293, 256 µM
[6] = tested on: HEK293; test: Cytotoxicity against human HEK293 cells assessed as reduction in cell viability at 1 to 128 uM relative to control; format: toxicity, cell-based; conditions: hek293, 128 µM, dose 1-128 µM
[7] = tested on: HEK293; test: Cytotoxicity against human HEK293 cells assessed as reduction in cell viability at 128 uM relative to control; format: toxicity, cell-based; conditions: hek293, 128 µM
[8] = Hemolytic activity in human RBC assessed as hemolysis at 2 uM relative to control; format: toxicity, cell-based, Erythrocyte; conditions: red blood cells, read-out: Activity
[9] = Stability in human serum assessed as compound remaining measured after 1 hr by RP-HPLC analysis; format: ADME, cell-free; conditions: read-out: Stability
[10] = Stability in human serum assessed as compound remaining measured after 3 hr by RP-HPLC analysis; format: ADME, cell-free; conditions: read-out: Stability
[11] = Hemolytic activity in human RBC assessed as hemolysis at 128 uM relative to control; format: toxicity, cell-based, Erythrocyte; conditions: red blood cells, read-out: Activity

Molecule	MIC [1] [µg/mL]	MIC [2] [µg/mL]	MIC [3] [µg/mL]	Activity [4]	Activity [5]	Activity [6]	Activity [7] [%]	hemolysis at 2 µM [8] [%]	remaining at 1 h [9] [%]	remaining at 3 h [10] [%]	hemolysis at 128 µM [11] [%]
H-KLLKRKLLVTLR-OH	25	6.25	> 200	Non-Toxic	Non-Toxic						
H-KKLLKKLLRLLKVLLR-OH	25	0.75	3			Toxic	11	90	60	< 9	
H-KLLKRKLLVLLR-OH	12.5	3	> 200								
C[C@@H]1[C@H](O)[C@@H](C)/C=C/C=C/C=C/C=C/C=C/C=C/C=C/[C@H](O[C@@H]2O[C@H](C)[C@@H](O)[C@H](N)[C@@H]2O)C[C@@H]2O[C@](O)(C[C@@H](O)C[C@@H](O)[C@H](O)CC[C@@H](O)C[C@@H](O)CC(=O)O[C@H]1C)C[C@H](O)[C@H]2C(=O)O [AMPHOTERICIN B]	0.4	0.4									
H-KLLKHKLLVTLR-OH	50	12.5	> 200	Non-Toxic	Non-Toxic						
H-KKLLRLLKVLLR-OH	1.5	1.5	50			Toxic	50		60	< 9	35
H-KLLKHKLLVTLA-OH	50	50	> 200	Non-Toxic	Non-Toxic					< 9	
OC(Cn1cncn1)(Cn1cncn1)c1ccc(F)cc1F [FLUCONAZOLE]			12.5								
